According to patent publication US9334279B2, “Hepatitis C virus inhibitors” (BRISTOL-MYERS SQUIBB COMPANY, priority 2012, dated 2016):

Columns and labels:
[1] = test system: HCV GT1a(H77) replicon; assay: HCV replicon luciferase reporter assay, genotype 1a; assay type: cell-based, HCV genotype 1a; conditions: Hepatitis C virus, 72 h, HUH-7 cells, Renilla luciferase, 3 days incubation, read-out: LE_1a (EC50, range)
Description: A stable HCV GT1a(H77) replicon luciferase reporter cell line (Yanagi M, Purcell RH, Emerson S U, et al. Transcripts from a single full-length cDNA clone of hepatitis C virus are infectious when directly transfected into the liver of a chimpanzee. Proc Natl Acad Sci USA 1997; 94(16):8738-8743) was generated as described previously for the genotype 1b(Con1) replicon luciferase cell line. The replicon construct was modified by introducing mutations into the genes encoding the NS3 helicase domain (proline replaced by leucine at position 1496) and NS5A (serine to isoleucine at position 2204) to improve replication in cell culture.
(§1) HCV replicon luciferase assays were developed to monitor the inhibitory effects of compounds described in the disclosure on HCV genotypes 1a and 1b viral replication. HUH-7 cells, constitutively expressing the HCV replicon, were grown in Dulbecco's Modified Eagle Media (DMEM) (Gibco-BRL) containing 10% Fetal calf serum (FCS) (Sigma) and 1 mg/mL G418 (Gibco-BRL). Compounds were serially diluted 3 folds in DMSO for a twenty-point titration and subsequently transferred to sterile 384-well tissue-culture treated plates (Corning cat #3571). The plates were then seeded with 50 μL of cells at a density of 3.0×10^3 cells/well in DMEM containing 4% FCS (final DMSO concentration at 0.5%). After 3 days incubation at 37° C., cells were analyzed for Renilla Luciferase activity using the EnduRen as substrate (Promega cat #E6485). The EnduRen substrate was diluted in DMEM and then added to the plates to a final concentration of 7.5 μM. The plates were incubated for 2 hrs at 37° C. and then read immediately for 30 seconds with Viewlux Imager (PerkinElmer) using a luminescence program. To assess cytotoxicity of compounds, CC50 values were generated by multiplexing the EnduRen-containing plates with Cell Titer-Blue (Promega, cat #G8082). Cell-Titer Blue (3 μL) was added to each well and incubated for 8 hrs at 37° C. The fluorescence signal from each well was read, with an excitation wavelength at 525/10 nm and an emission wavelength of 598/10 nm, using the Viewlux Imager.
(§2) The EC50 values for compounds were calculated by using a four-parameter logistic equation: y=A+[…])/(1+((C/x)^D))), where A and B denotes minimal and maximal % inhibition, respectively, C is the EC50, D is the hill slope and x represents compound concentration.

[2] = test system: HCV GT1b(Con1) replicon; assay: HCV replicon luciferase reporter assay, genotype 1b; assay type: cell-based, HCV genotype 1b; conditions: Hepatitis C virus, 72 h, HUH-7 cells, Renilla luciferase, 3 days incubation, read-out: LE_1b (EC50, range)
Description: An HCV GT1b(Con1) replicon cell system was established as described by Lohmann V, Korner F, Koch J, Herian U, Theilmann L, Bartenschlager R., Science 285(5424):110-3 (1999) and modified to introduce a luciferase reporter (Krieger N, Lohmann V, and Bartenschlager R, J. Virol. 75(10):4614-4624 (2001)). cDNA encoding a humanized form of the Renilla luciferase gene, and a linker sequence fused directly to the 3′-end of the luciferase gene were introduced into the replicon construct using an Asc1 restriction site located in core, directly upstream of the neomycin marker gene. The adaptive mutation at position 1179 (serine to isoleucine) was also introduced (Blight K J, Kolykhalov, A A, Rice, C M, Science 290(5498):1972-1974). A stable cell line constitutively expressing this HCV replicon construct was generated by first linearizing plasmid DNAs with ScaI. RNA transcripts were synthesized in vitro using the T7 MegaScript transcription kit (Ambion, Austin, Tex.) according to manufacturer's directions. In vitro transcripts of the cDNA were transfected into the human hepatoma cell line, HUH-7. […] Resulting cell lines were characterized for positive and negative strand RNA production and protein production over time.
as §1, §2

SMILES	EC50 [1] [nM]	EC50 [2] [nM]
CC(C)Oc1ccc(-c2cc(O[C@@H]3C[C@H]4C(=O)N[C@]5(C(=O)NS(=O)(=O)C6(C)CC6)C[C@H]5/C=C\CC[C@@H](C)C[C@@H](C)[C@H](NC(=O)OC(C)(C)C(F)(F)F)C(=O)N4C3)cc(-c3ccncc3)n2)cc1 [Compound 1009, 1,1,1-trifluoro-2-methylpropan-2-yl ((2R,6S,7R,9R,13aS,14aR,16aS,Z)-2-((6-(4-isopropoxyphenyl)-[2,4′-bipyridin]-4-yl)oxy)-7,9-dimethyl-14a-(((1-methylcyclopropyl)sulfonyl)carbamoyl)-5,16-dioxo-1,2,3,5,6,7,8,9,10,11,13a,14,14a,15,16,16a-hexadecahydrocyclopropa[e]pyrrolo[1,2-a][1,4]diazacyclopentadecin-6-yl)carbamate]	1.01 to 5	1.01 to 5
CC(C)Oc1ccc(-c2cc(O[C@@H]3C[C@H]4C(=O)N[C@]5(C(=O)NS(=O)(=O)C6(C)CC6)C[C@H]5/C=C\CC[C@@H](C)C[C@@H](C)[C@H](NC(=O)OC5(C(F)(F)F)CCCOC5)C(=O)N4C3)cc(-c3nccs3)n2)cc1 (stereo partly drawn) [Compound 1041, 3-(trifluoromethyl)tetrahydro-2H-pyran-3-yl ((2R,6S,7R,9R,13aS,14aR,16aS,Z)-2-((2-(4-isopropoxyphenyl)-6-(thiazol-2-yl)pyridin-4-yl)oxy)-7,9-dimethyl-14a-(((1-methylcyclopropyl)sulfonyl)carbamoyl)-5,16-dioxo-1,2,3,5,6,7,8,9,10,11,13a,14,14a,15,16,16a-hexadecahydrocyclopropa[e]pyrrolo[1,2-a][1,4]diazacyclopentadecin-6-yl)carbamate]	0.51 to 1	0.51 to 1
CC[C@@H]1C[C@H](C)CC/C=C\[C@@H]2C[C@@]2(C(=O)NS(=O)(=O)C2(C)CC2)NC(=O)[C@@H]2C[C@@H](Oc3ccnc(-c4nc(C)cs4)c3)CN2C(=O)[C@H]1NC(=O)OC(C)(C)C(F)(F)F [Compound 1055, 1,1,1-trifluoro-2-methylpropan-2-yl ((2R,6S,7R,9R,13aS,14aR,16aS,Z)-7-ethyl-9-methyl-14a-(((1-methylcyclopropyl)sulfonyl)carbamoyl)-2-((2-(4-methylthiazol-2-yl)pyridin-4-yl)oxy)-5,16-dioxo-1,2,3,5,6,7,8,9,10,11,13a,14,14a,15,16,16a-hexadecahydrocyclopropa[e]pyrrolo[1,2-a][1,4]diazacyclopentadecin-6-yl)carbamate]	1.01 to 5	1.01 to 5
CC[C@@H]1C[C@H](C)CC/C=C\[C@@H]2C[C@@]2(C(=O)NS(=O)(=O)C2CC2)NC(=O)[C@@H]2C[C@@H](Oc3cc(OC)nc(-c4nccs4)c3)CN2C(=O)[C@H]1NC(=O)OC(C)(C)C(F)(F)F [Compound 1056, 1,1,1-trifluoro-2-methylpropan-2-yl ((2R,6S,7R,9R,13aS,14aR,16aS,Z)-14a-((cyclopropylsulfonyl)carbamoyl)-7-ethyl-2-((2-methoxy-6-(thiazol-2-yl)pyridin-4-yl)oxy)-9-methyl-5,16-dioxo-1,2,3,5,6,7,8,9,10,11,13a,14,14a,15,16,16a-hexadecahydrocyclopropa[e]pyrrolo[1,2-a][1,4]diazacyclopentadecin-6-yl)carbamate]	1.01 to 5	1.01 to 5
CC[C@@H]1C[C@H](C)CC/C=C\[C@@H]2C[C@@]2(C(=O)NS(=O)(=O)C2CC2)NC(=O)[C@@H]2C[C@@H](Oc3cc(-c4ccc(OC(C)C)cc4)nc(-c4nccs4)c3)CN2C(=O)[C@H]1NC(=O)O[C@@H]1C[C@@H]2C[C@@H]2C1 [Compound 1057, (1R,3r,5S)-bicyclo[3.1.0]hexan-3-yl ((2R,6S,7R,9R,13aS,14aR,16aS,Z)-14a-((cyclopropylsulfonyl)carbamoyl)-7-ethyl-2-((2-(4-isopropoxyphenyl)-6-(thiazol-2-yl)pyridin-4-yl)oxy)-9-methyl-5,16-dioxo-1,2,3,5,6,7,8,9,10,11,13a,14,14a,15,16,16a-hexadecahydrocyclopropa[e]pyrrolo[1,2-a][1,4]diazacyclopentadecin-6-yl)carbamate]	1.01 to 5	1.01 to 5
CC[C@@H]1C[C@H](C)CC/C=C\[C@@H]2C[C@@]2(C(=O)NS(=O)(=O)C2CC2)NC(=O)[C@@H]2C[C@@H](Oc3cc(-c4ccc(C(F)(F)F)cc4)nc(-c4nccs4)c3)CN2C(=O)[C@H]1NC(=O)OC(C)(C)C(F)(F)F [Compound 1053, 1,1,1-trifluoro-2-methylpropan-2-yl ((2R,6S,7R,9R,13aS,14aR,16aS,Z)-14a-((cyclopropylsulfonyl)carbamoyl)-7-ethyl-9-methyl-5,16-dioxo-2-((2-(thiazol-2-yl)-6-(4-(trifluoromethyl)phenyl)pyridin-4-yl)oxy)-1,2,3,5,6,7,8,9,10,11,13a,14,14a,15,16,16a-hexadecahydrocyclopropa[e]pyrrolo[1,2-a][1,4]diazacyclopentadecin-6-yl)carbamate]	1.01 to 5	1.01 to 5
COc1cccc(-c2cc(O[C@@H]3C[C@H]4C(=O)N[C@]5(C(=O)NS(=O)(=O)C6(C)CC6)C[C@H]5/C=C\CCC(C)C[C@@H](C)[C@H](NC(=O)OC(C)(C)C(F)(F)F)C(=O)N4C3)cc(-c3ccc(OC(C)C)cc3)n2)n1 (stereo in doubt) [Compound 1012, 1,1,1-trifluoro-2-methylpropan-2-yl ((2R,6S,7R,9R,13aS,14aR,16aS,Z)-2-((6-(4-isopropoxyphenyl)-6′-methoxy-[2,2′-bipyridin]-4-yl)oxy)-7,9-dimethyl-14a-(((1-methylcyclopropyl)sulfonyl)carbamoyl)-5,16-dioxo-1,2,3,5,6,7,8,9,10,11,13a,14,14a,15,16,16a-hexadecahydrocyclopropa[e]pyrrolo[1,2-a][1,4]diazacyclopentadecin-6-yl)carbamate]	5.01 to 35	5.01 to 35
CC(C)Oc1ccc(-c2cc(O[C@@H]3C[C@H]4C(=O)N[C@]5(C(=O)NS(=O)(=O)C6(C)CC6)C[C@H]5/C=C\CC[C@@H](C)C[C@@H](C)[C@H](NC(=O)OC5(C(F)(F)F)CCCOC5)C(=O)N4C3)cc(-c3cscn3)n2)cc1 (stereo partly drawn) [Compound 1052, 3-(trifluoromethyl)tetrahydro-2H-pyran-3-yl ((2R,6S,7R,9R,13aS,14aR,16aS,Z)-2-((2-(4-isopropoxyphenyl)-6-(thiazol-4-yl)pyridin-4-yl)oxy)-7,9-dimethyl-14a-(((1-methylcyclopropyl)sulfonyl)carbamoyl)-5,16-dioxo-1,2,3,5,6,7,8,9,10,11,13a,14,14a,15,16,16a-hexadecahydrocyclopropa[e]pyrrolo[1,2-a][1,4]diazacyclopentadecin-6-yl)carbamate]	0.1 to 0.5	0.51 to 1
CC(C)Oc1ccc(-c2cc(Cl)cc(O[C@@H]3C[C@H]4C(=O)N[C@]5(C(=O)NS(=O)(=O)C6(C)CC6)C[C@H]5/C=C\CC[C@H](C)C[C@@H](C)[C@H](NC(=O)OC(C)(C)C)C(=O)N4C3)n2)cc1 [Compound 1030, tert-butyl ((2R,6S,7R,9S,13aS,14aR,16aS,Z)-2-((4-chloro-6-(4-isopropoxyphenyl)pyridin-2-yl)oxy)-7,9-dimethyl-14a-(((1-methylcyclopropyl)sulfonyl)carbamoyl)-5,16-dioxo-1,2,3,5,6,7,8,9,10,11,13a,14,14a,15,16,16a-hexadecahydrocyclopropa[e]pyrrolo[1,2-a][1,4]diazacyclopentadecin-6-yl)carbamate]	35 to 359	35 to 359
